Results reported in patent publication US8778643B2, “Methods for increasing lipid levels and producing triacylglycerols in algae” (priority 2012, dated 2014).
Read-outs that look alike come from different tables or passages of the source.

Key:
CDK = conditions: CDKs; cited from earlier work
Nannochloris sp. [1] = assay: Microplate assay: growth (absorbance 680 nm) and intracellular lipids (Nile Red fluorescence); assay type: cell-based; conditions: for Nile Red Fluorescence % Increase: initial screening, p<0.05; for Absorbance (percent increase) / Nile Red percent increase: initial microplate screen, relative to control
Experimental: (§1) Stock cultures were aerated by stirring with bubbling air (homemade manifold with Petco air pump, 2-4% CO2) or by orbital shaking (Thermo Scientific MAXQ 2000) at a constant speed of 150 rpm at 22±3° C. with a 16:8 hour light/dark cycle. Stocks were kept at stationary phase for use. Algae were prepared as dictated by culture center.
(§2) Compounds were selected based on reported biological activity in non-microalgae organisms. To ensure that compounds retained their quality, they were stored under advised conditions after purchasing from the manufacturer. Solutions of all assay compounds were prepared as 10 mM stock solutions by dissolving in DMSO in 2-dram amber vials and then stored in darkness −20° C. 96-well PCR plates were used to create a stock plate layout that was then transferred to the algae microplates. A plate map was used to distribute each compound to a well based on molecule name, collection number, and CAS number. For 20 μM and 200 nM assay plates, 10 mM compound stock in DMSO was diluted into plate maps of 5 mM and 50 μM assay stocks, respectively.
(§3) All materials for assay experiments were autoclaved before each use to maintain axenic algae cultures. Algae species were checked for homogeneity using a TS-100 light microscope (Nikon, Japan). […] Diluted stock solutions were made immediately prior to use for consistency and optimal plate growth. Cell density was measured on a Thermo Scientific Genesys 10S Vis Spectrophotometer (ThermoFisher, San Jose), using a 1 mL cuvette at 680 nm.
(§4) Plates were originally run in triplicate, before replicates were increased to quadruplicate, along with a separate control plate to compare growth. Due to extensive evaporation in exterior wells over time, our unique algae plate layout was designed to use the 60 interior wells out of 96 wells for the experiment. The 36 outer wells were filled with Millipore water and media to prevent evaporation and edge effects in the inner algae wells, as well as serve as blanks. The 60 wells with algae contained a total volume of 251 μL (100 μL of media+DMSO compound stock +150 μL dilute algae stock). For 20 μM and 200 nM assay plates, 10 mM compound stock in DMSO is diluted into plate maps of 5 mM and 50 μM assay stocks, respectively. […] Plates were parafilmed during growth to limit the amount of evaporation that can occur. Plates were numbered, and numerically ordered to ensure they got the same shaker space.
(§5) The shakers are kept at a constant shaking of 150 rpm. Ambient temperature is 22±3° C.

ERK signaling pathway = conditions: cited from earlier work
[2] = tested on: Phaeodactylum tricornutum; assay: Microplate assay: growth (absorbance 680 nm) and intracellular lipids (Nile Red fluorescence); assay type: cell-based
CDK6 = CDK6 (Homo sapiens, UniProt Q00534); conditions: cited from earlier work
CDK6, sequence (Q00534 whole entry, looked up): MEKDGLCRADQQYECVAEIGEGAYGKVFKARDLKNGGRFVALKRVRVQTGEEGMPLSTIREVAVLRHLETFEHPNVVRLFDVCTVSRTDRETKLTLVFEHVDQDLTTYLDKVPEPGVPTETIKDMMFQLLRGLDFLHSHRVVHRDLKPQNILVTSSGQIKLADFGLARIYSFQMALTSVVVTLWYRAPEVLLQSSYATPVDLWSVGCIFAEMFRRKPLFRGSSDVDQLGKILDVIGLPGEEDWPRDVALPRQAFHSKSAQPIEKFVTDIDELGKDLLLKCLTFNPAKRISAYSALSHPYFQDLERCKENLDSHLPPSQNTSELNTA

CDC25 phosphatase 25A = CDC25 phosphatase 25A (Homo sapiens, UniProt P30304); conditions: cited from earlier work
CDC25 phosphatase 25A, sequence (P30304 whole entry): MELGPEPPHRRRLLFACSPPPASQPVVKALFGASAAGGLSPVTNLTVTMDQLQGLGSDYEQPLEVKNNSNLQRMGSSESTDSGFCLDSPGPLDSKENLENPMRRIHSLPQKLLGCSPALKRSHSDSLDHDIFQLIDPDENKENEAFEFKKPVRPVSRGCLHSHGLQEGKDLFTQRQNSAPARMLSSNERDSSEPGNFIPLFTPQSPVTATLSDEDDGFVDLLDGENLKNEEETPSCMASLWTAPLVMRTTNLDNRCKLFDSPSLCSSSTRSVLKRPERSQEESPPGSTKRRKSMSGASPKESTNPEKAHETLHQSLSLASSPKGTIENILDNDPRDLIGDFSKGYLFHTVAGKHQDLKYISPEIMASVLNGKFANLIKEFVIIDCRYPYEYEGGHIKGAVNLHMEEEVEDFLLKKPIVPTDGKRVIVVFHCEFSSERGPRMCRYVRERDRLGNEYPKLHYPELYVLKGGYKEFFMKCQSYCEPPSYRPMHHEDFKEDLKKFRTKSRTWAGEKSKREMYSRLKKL

CDC25 phosphatase 25C = CDC25 phosphatase 25C (Homo sapiens, UniProt P30307); conditions: cited from earlier work
CDC25 phosphatase 25C, sequence (P30307 whole entry): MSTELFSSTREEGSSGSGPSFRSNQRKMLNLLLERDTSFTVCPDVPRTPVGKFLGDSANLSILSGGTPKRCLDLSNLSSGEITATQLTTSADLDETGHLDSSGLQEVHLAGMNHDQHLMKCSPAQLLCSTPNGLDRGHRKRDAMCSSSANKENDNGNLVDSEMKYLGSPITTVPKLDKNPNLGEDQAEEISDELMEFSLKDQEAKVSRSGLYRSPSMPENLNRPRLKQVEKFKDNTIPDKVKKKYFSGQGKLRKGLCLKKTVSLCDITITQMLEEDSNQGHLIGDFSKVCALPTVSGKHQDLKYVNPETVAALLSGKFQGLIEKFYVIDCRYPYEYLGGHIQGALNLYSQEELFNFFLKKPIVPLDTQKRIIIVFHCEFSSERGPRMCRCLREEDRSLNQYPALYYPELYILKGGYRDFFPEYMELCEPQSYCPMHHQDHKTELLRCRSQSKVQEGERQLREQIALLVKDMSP

[3] = biological target: T1, CDC25 phosphatase 25C-cat (Homo sapiens, UniProt P30307); conditions: cited from earlier work
T1 construct: 25C-cat
T1 sequence (P30307 321-428 limits assumed): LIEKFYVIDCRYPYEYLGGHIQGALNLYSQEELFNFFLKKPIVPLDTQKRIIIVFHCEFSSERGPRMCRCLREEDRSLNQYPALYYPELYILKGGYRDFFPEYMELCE

Nannochloropsis sp. = assay: Microplate assay: increase of lipid production (Table 17); assay type: cell-based; conditions: best conc. 2.4 nM
Text: We also tested a collection with more antioxidants, kinase inhibitors, and further compounds for increase of lipid production with N. salina, P. tricornutum, N. oculata, and Nannochloropsis sp.

arachidonate 15-LO = arachidonate 15-LO (Homo sapiens, UniProt P16050); conditions: cited from earlier work
arachidonate 15-LO, sequence (P16050 whole entry): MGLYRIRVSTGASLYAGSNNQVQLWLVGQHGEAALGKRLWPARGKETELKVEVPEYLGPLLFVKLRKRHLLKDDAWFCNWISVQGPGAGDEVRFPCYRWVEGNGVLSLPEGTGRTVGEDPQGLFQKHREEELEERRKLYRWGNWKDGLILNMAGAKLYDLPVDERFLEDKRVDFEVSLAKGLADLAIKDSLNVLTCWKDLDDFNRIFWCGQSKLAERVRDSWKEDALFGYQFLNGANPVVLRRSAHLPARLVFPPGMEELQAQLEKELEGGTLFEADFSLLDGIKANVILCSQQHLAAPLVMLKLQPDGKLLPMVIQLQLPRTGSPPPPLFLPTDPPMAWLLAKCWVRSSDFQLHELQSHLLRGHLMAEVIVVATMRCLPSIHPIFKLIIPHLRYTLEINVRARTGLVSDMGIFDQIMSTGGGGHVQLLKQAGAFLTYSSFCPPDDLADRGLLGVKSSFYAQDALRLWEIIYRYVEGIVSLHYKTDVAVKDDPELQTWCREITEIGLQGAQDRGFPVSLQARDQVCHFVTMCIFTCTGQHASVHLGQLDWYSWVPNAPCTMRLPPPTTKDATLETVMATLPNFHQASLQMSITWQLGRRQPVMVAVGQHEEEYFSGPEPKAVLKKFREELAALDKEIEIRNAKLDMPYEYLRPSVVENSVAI

Nannochloropsis oculata [4] = conditions: for Nile Red Fluorescence % Increase: compounds tested at 200 nM, initial screening, p<0.05
p70 S6 kinase activation = conditions: signaling that leads to p70 S6 kinase activation; cited from earlier work
Cdk2/cyclin A = Cdk2/cyclin A (Homo sapiens, UniProt P24941); conditions: Cdk2/cyclin A; cited from earlier work
Cdk2/cyclin E = Cdk2/cyclin E (Homo sapiens, UniProt P24941); conditions: cited from earlier work
c-Jun N-terminal kinase = conditions: cited from earlier work
EGFR tyrosine kinase = EGFR tyrosine kinase (Homo sapiens, UniProt P00533); conditions: cited from earlier work
EGFR tyrosine kinase, sequence (P00533 25-1210): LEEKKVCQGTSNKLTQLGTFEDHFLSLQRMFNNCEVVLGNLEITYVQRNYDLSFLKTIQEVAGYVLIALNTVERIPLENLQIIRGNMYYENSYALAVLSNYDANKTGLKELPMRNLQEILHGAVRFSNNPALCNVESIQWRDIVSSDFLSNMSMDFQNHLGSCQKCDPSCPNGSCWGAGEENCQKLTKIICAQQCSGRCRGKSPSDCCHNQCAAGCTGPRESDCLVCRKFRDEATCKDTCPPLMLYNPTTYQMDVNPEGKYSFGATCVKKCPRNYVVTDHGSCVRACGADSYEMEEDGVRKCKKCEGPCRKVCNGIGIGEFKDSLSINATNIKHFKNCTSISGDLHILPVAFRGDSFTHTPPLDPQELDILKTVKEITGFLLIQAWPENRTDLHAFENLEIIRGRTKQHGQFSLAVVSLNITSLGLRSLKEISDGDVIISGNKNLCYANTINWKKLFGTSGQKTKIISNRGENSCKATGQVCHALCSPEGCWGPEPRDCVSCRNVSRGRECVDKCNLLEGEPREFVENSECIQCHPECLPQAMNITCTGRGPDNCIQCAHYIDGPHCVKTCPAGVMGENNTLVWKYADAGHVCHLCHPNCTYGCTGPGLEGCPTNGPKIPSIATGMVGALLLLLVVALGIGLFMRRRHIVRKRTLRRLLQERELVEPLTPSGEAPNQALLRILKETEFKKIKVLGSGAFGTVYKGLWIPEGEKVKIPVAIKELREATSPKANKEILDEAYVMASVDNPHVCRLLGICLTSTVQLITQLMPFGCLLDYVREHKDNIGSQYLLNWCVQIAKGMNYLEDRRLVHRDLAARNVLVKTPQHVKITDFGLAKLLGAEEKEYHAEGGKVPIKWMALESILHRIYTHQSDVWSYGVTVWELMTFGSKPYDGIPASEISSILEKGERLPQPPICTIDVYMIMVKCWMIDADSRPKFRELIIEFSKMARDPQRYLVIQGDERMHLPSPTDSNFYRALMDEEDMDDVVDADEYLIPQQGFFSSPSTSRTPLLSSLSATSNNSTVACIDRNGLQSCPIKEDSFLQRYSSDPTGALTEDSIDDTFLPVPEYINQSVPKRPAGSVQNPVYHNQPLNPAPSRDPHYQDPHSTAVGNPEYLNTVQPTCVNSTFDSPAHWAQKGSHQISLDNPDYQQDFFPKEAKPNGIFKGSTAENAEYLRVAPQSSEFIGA

Nannochloropsis salina [5] = conditions: for % Inc: increase of lipid production, best conc. 10 nM
Experimental: as §1, §2, §3, §4, §5

protein phosphatase 2A = protein phosphatase 2A (Homo sapiens, UniProt P67775); conditions: cited from earlier work
protein phosphatase 2A, sequence (P67775 whole entry): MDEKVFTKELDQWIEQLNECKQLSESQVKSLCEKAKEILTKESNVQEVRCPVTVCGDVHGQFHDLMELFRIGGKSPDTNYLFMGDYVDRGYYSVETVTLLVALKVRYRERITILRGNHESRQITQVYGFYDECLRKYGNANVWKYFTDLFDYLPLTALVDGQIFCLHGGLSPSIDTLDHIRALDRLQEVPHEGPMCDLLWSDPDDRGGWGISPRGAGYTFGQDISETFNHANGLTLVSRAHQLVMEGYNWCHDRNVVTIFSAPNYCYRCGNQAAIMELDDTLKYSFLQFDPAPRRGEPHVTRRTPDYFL

Nannochloris sp. [6] = assay: 500 mL batch culture: growth, dry weight and lipid extract (gravimetric); assay type: cell-based; conditions: Nannochloris sp., 500 mL culture, 40 nM
Experimental: (§6) Batch cultures were grown in 500 mL Pyrex media bottles with stirring and air bubbling (homemade manifold with Petco air pump, 2-4% CO2). Incoming air was sterile filtered by Polyvent 4 disposable filters (Whatman, Kent, UK). […] To minimize bacterial contamination, all equipment and materials were autoclaved and media was added to flask in a Purifier Vertical Clean bench (Labconco, Kansas City, Mo.). […] The amount of DMSO is standardized for all experiments to 0.4%.
(§7) For all compound cultures, the 2 mL DMSO stock solution was added to media (without algae) first and mixed well. Control cultures were grown without DMSO. DMSO controls consisted of 0.04-1.0% DMSO. After the addition of algae and media, the container was plugged with a bug stopper vented closure cap and mixed thoroughly. Absorbance is measured immediately for Day 0 analysis. Afterward, absorbance was measured every 1-2 days with a cuvette (1 mL volume) on the Thermo Scientific Genesys 10S V is Spectrophotometer (ThermoFisher, San Jose) at 680 nm.
(§8) Batch cultures were also repeated in triplicate and compared to a control culture grown at the same time. Algae were harvested and lipids were extracted for gravimetric analysis.
The nonpolar algal extracts were harvested from 500 mL cultures when indicated on growth curves, a minimum of 3 days into stationary phase.
(§9) Cell density was monitored by measuring absorbance at 680 nm every 1-2 days.
(§10) 500-mL cultures were harvested 6 days into stationary phase based on absorbance values. Cells were concentrated by centrifugation and lyophilization to remove water. Nonpolar lipids were extracted by sonication and solvent (chloroform-methanol and PBS buffer). […] Changes in lipid levels for batch cultures were determined by crude lipid extract mass.

Nannochloropsis oculata [7] = assay: Lipid composition of batch culture extracts (fatty acid saturation / PUFA by 1H NMR, MALDI-TOF, GC/MS); assay type: cell-based; conditions: N. oculata, 40 nM, n=1
Experimental: The nonpolar algal extracts were harvested from 500 mL cultures when indicated on growth curves, a minimum of 3 days into stationary phase. […] Cells were crushed and nonpolar lipids were extracted by sonication (Fisher Scientific Model 120 Sonic Dismembrator, ThermoFisher, San Jose) for 1 minute in chloroform, followed by chloroform-methanol extractions, washed with PBS butter, and dried under vacuum.^55-60 The crude non-polar algae extracts were then analyzed by ^1H Nuclear Magnetic Resonance (^1H NMR) for verification of TAG presence and examination of the purity of the extract (determination of level of chlorophyll). The extracts were then divided for analysis; one part for transesterification, one part to save as crude extract, and one part for SPE separation and MALDI-TOF analysis of TAGs.
Triacylglycerols can be isolated by solid-phase extraction (SPE) with 500 mg silica SPE cartridges (Silicycle, Quebec). The nonpolar extract is dissolved in 300 μL hexanes, and loaded on the SPE cartridge primed with hexanes. A mixture of 80:20:1 hexanes/diethyl ether/acetic acid was used as mobile phase to elute the TAGs.^61 SPE removes any chlorophyll in this process. Residual polar fraction containing polar lipids and chlorophyll was obtained by elution with acetone. All extracts and TAG fractions were dried under vacuum and stored under argon in amber vials at −20° C. before spectroscopic analysis. After SPE, the purified TAG fraction was reanalyzed with ^1H NMR spectroscopy for TAG characterization.
The TOF was in Reflectron mode with laser intensity from 5500-6500 Volts. Each acquisition consisted of 2500 shots with a focus mass of 900 Da, and a scan range of m/z 400-1100. Multiple acquisition scans were performed at different laser intensities to determine optimal conditions. Samples for the MALDI-TOF were diluted to 5 mg/mL in hexane, and spotted in the fast-evaporation method in a 1:2 ratio with DHB (2,5-dihydroxybenzoic acid) as the matrix. Re-spotting with methanol allowed for the matrix and sample to mix without hexane interactions, and allowed for better crystal formation. All samples on MALDI plate were allowed to dry before MS analysis. Data was normalized to base peak in all cases.
After the initial weight was recorded, the nonpolar extract set aside for transesterification was dissolved in 3.0 mL of 0.6 M sulfuric acid in methanol and stirred vigorously at 60° C. for 45 minutes.
Initial GC/MS temperature was 50° C. and end was 200° C. over at a one hour period for optimal FAME peak separation.
Peak assignment of fatty acids and their derivatives are based on NMR spectroscopic studies of previously reported algal lipid extracts^9 and comparison to standards such as olive oil (ACROS) and fatty acid mixtures.
We developed a quick and robust method to screen if the screened compound effect fatty acid saturation levels using ^1H NMR spectroscopy. The amount of saturated fatty acids (SFA), monounsaturated fatty acids (MUFAs), and polyunsaturated fatty acids (PUFAs) was determined using peak area ratios.
Calculated based on ^1H NMR integral ratios for the proton signals for the methyl group of PUFA components vs. the methyl groups of monounsaturated and saturated components.

microalgae = assay: 500 mL batch culture (growth, gravimetric lipids), algae strain not stated; assay type: cell-based; conditions: 500 mL batch cultures (Table 30)
Diacylglycerol lipase = conditions: cited from earlier work
[8] = tested on: antioxidant response element; conditions: cited from earlier work
PKC = conditions: cited from earlier work
PKA = PKA (Homo sapiens, UniProt P17612); conditions: cited from earlier work
Nannochloropsis salina [9] = assay: 500 mL batch culture: growth, dry weight and lipid extract (gravimetric); assay type: cell-based; conditions: for increase in lipid levels: batch cultures; for Lipid productivity / Lipid content / Change in Lipids / Specific Growth Rate: N. salina, 500 mL culture; for Lipid content: dried lipid extract per dry biomass; for Change in Lipids: gravimetric, relative to averaged control without DMSO; for Specific Growth Rate: mid-exponential growth phase
Experimental: as §6, §7, §8
Cultures were harvested at day 6 in stationary phase. Cultures were pelleted, lyophilized, and extracted side-by-side. The experiment was performed in triplicate.
The nonpolar algal extracts were harvested from 500 mL cultures when indicated on growth curves, a minimum of 3 days into stationary phase. […] Cells were crushed and nonpolar lipids were extracted by sonication (Fisher Scientific Model 120 Sonic Dismembrator, ThermoFisher, San Jose) for 1 minute in chloroform, followed by chloroform-methanol extractions, washed with PBS butter, and dried under vacuum.^55-60 The crude non-polar algae extracts were then analyzed by ^1H Nuclear Magnetic Resonance (^1H NMR) for verification of TAG presence and examination of the purity of the extract (determination of level of chlorophyll).
as §9, §10

[10] = DPPH free radical scavenging activity; cited from earlier work
[11] = tested on: microsomal lipid peroxidation; conditions: cited from earlier work
MLCK = conditions: cited from earlier work
[12] = biological target: T2, PKA (rat liver catalytic subunit) (Rattus norvegicus, UniProt P27791); conditions: cited from earlier work
T2 construct: rat liver catalytic subunit; host or cells: rat liver

[13] = Nannochloris sp., compounds tested at 200 nM
[14] = Nannochloris sp., compounds tested at 20 μM
[15] = 200 nM, initial microplate screen, relative to control

## COc1ccc2c(c1)/C(=C/c1cnc[nH]1)C(=O)N2 [SU9516]
CDK
  IC50: 0.022 µM

## Cn1cnc2c1c(=O)[nH]c(=O)n2C [Theobromine]
Nannochloris sp. [1]; [13]
  Nile Red Fluorescence % Increase: 34.3%
ERK signaling pathway
  potency: (potency = 0.004 μM)

## CCNc1cc(N[C@H]2CC[C@H](O)CC2)nc(Nc2ccc3c(ccn3Cc3ccccc3)c2)n1 [CDK4/6 Inhibitor 4, trans-4-((6-(ethylamino)-2-((1-(phenylmethyl)-1H-indol-5-yl)amino)-4-pyrimidinyl)amino)-cyclohexanol]
[2]; P. tricornutum, 10 μM, DMSO delivery, added t=day 0
  % Increase based on Nile Red Fluorescence Intensity: 50%
CDK6
  IC50: 5.6 µM

## 6-Chloro-7-(2-morpholin-4-yl-ethylamino)-quinoline-5,8-dione [CDC25 Phosphatase Inhibitor I]
CDC25 phosphatase 25A
  IC50: 2.4 µM
CDC25 phosphatase 25C
  IC50: 5.4 µM
[3]
  IC50: 4.6 µM

## CC(=O)Nc1ccc(O)cc1 [Acetaminophen, N-(4-hydroxyphenyl)ethanamide]
Nannochloris sp. [1]; 200 nM
  Absorbance (percent increase): −6.7%
  Nile Red percent increase: 68.9%
Nannochloris sp. [1]; [14]
  Nile Red Fluorescence % Increase: 89.7%
Nannochloropsis sp.
  % Inc: 13.11%
Arachidonate 15-LO
  IC50: 28.4 µM

## CO[C@H]1C[C@@H]2CC[C@@H](C)[C@@](O)(O2)C(=O)C(=O)N2CCCC[C@H]2C(=O)O[C@H]([C@H](C)C[C@@H]2CC[C@@H](O)[C@H](OC)C2)CC(=O)[C@H](C)/C=C(\C)[C@@H](O)[C@@H](OC)C(=O)[C@H](C)C[C@H](C)/C=C/C=C/C=C/1C [Rapamycin, (3S,6R,7E,9R,10R,12R,14S,15E,17E,19E,21S,23S,26R,27R,34aS)-9,10,12,13,14,21,22,23,24,25,26,27,32,33,34,34a-hexadecahydro-9,27-dihydroxy-3-[(1R)-2-[(1S,3R,4R)-4-hydroxy-3-methoxycyclohexyl]-1-methylethyl]-10,21-dimethoxy-6,8,12,14,20,26-hexamethyl-23,27-epoxy-3H-pyrido[2,1-c][1,4]-oxaazacyclohentriacontine-1,5,11,28,29(4H,6H,31H)-pentone]
Nannochloris sp. [1]; 200 nM
  Absorbance (percent increase): −5.9%
  Nile Red percent increase: 107.9%
Nannochloris sp. [1]; [14]
  Nile Red Fluorescence % Increase: 117.3%
Nannochloropsis oculata [4]; N. oculata
  Nile Red Fluorescence % Increase: 141.6%
p70 S6 kinase activation
  IC50: 0.05 nM

## CCCCc1c(-c2ccc(O)cc2)[nH]c2nccnc12 [Aloisine A, 7-n-Butyl-6-(4-hydroxyphenyl)[5H]pyrrolo[2,3-b]pyrazine]
Nannochloris sp. [1]; 200 nM
  Absorbance (percent increase): −5.4%
  Nile Red percent increase: 125.9%
Nannochloris sp. [1]; 20 μM
  Absorbance (percent increase): −12.6%
  Nile Red percent increase: 84.1%
Nannochloropsis oculata [4]; N. oculata
  Nile Red Fluorescence % Increase: 117.7%
Cdk2/cyclin A
  IC50: 0.12 µM
Cdk2/cyclin E
  IC50: 0.4 µM
c-Jun N-terminal kinase
  IC50: 3 to 10 µM

## O=C(/C=C/c1ccc(O)c(O)c1)c1ccc(O)cc1O [Butein, (E)-1-(2,4-dihydroxyphenyl)-3-(3,4-dihydroxyphenyl)prop-2-en-1-one]
[2]; 54 nM-40 μM (H2O)
  % increase (lipid production): 1-116 (H2O) %
[2]; 40 μM
  % increase (lipid production): 14%
EGFR tyrosine kinase
  IC50: 65 µM

## CC12C(=O)OC(=O)C1(C)C1CCC2O1 (centres unmarked) [Cantharidin, 2,6-Dimethyl-4,10-dioxatricyclo-[5.2.1.0^2,6]decane-3,5-dione]
[2]; 0.0252-0.0757 nM
  % increase (lipid production): 9-35%
[2]; 0.0252-165.6 nM (H2O)
  % increase (lipid production): 0.17-168.19%
Nannochloris sp. [1]; 200 nM
  Absorbance (percent increase): −6.5%
  Nile Red percent increase: 64.5%
Nannochloris sp. [1]; [14]
  Nile Red Fluorescence % Increase: 22.9%
Nannochloropsis salina [5]; 0.0252-0.681 nM
  % increase (lipid production): 1-15%
Nannochloropsis salina [5]; 0.0252-165 nM (H2O)
  % increase (lipid production): 7-87%
Nannochloropsis oculata [4]; 55.2-165.6 nM
  % increase (lipid production): 11-54%
Protein phosphatase 2A
  IC50: 0.04 µM

## CCCCCCCCCCC[C@@H](C[C@@H]1OC(=O)[C@H]1CCCCCC)OC(=O)[C@H](CC(C)C)NC=O [orlistat, (S)-((S)-1-((2S,3S)-3-hexyl-4-oxooxetan-2-yl)tridecan-2-yl) 2-formamido-4-methylpentanoate]
Nannochloris sp. [6]
  Lipid productivity: 5.1 ± 1.5 mgL^−1day^−1
Nannochloris sp. [6]; gravimetric, relative to averaged control without DMSO
  Change in Lipids: 72%
Nannochloris sp. [6]; mid-exponential growth phase
  Specific Growth Rate: 0.20 ± 0.01 day⁻¹
Nannochloropsis oculata [7]; Normal 0 ± 1
  SFAs (%): 3%
Nannochloropsis oculata [7]; Normal 4 ± 7
  MUFAs (%): 29%
Nannochloropsis oculata [7]; Normal 28 ± 4
  n3 PUFAs (%): 16%
Nannochloropsis oculata [7]; Normal 96 ± 7
  PUFAs (%): 68%
microalgae
  effect on growth and lipid levels: positive increases in growth and lipid levels
Nannochloropsis salina [5]; N. salina, 40 μM
  % change in abs: −31.92%
  % in NR fl: 61.76%
Nannochloropsis oculata [4]; N. oculata, 13 nM
  % change in abs: 0.83%
  % in NR fl: 63.67%
Diacylglycerol lipase
  IC50: 1 µM

## CC1=CC(=O)CC(C)(C)[C@@]1(O)/C=C/C(C)=C\C(=O)O [Abscisic acid, (2Z,4E)-5-[(1S)-1-hydroxy-2,6,6-trimethyl-4-oxocyclohex-2-en-1-yl]-3-methylpenta-2,4-dienoic acid]
[2]; [15]
  Absorbance (percent increase): −1.2%
  Nile Red percent increase: 87.0%
[2]; P. tricornutum, compounds tested at 200 nM, initial screening, p<0.05
  Nile Red Fluorescence % Increase: 87.0%
Nannochloris sp. [1]; 200 nM
  Absorbance (percent increase): −2.6%
  Nile Red percent increase: 61.6%
Nannochloris sp. [1]; [13]
  Nile Red Fluorescence % Increase: 90.8%
Nannochloropsis salina [5]; N. salina, compounds tested at 20 μM, initial screening, p<0.05
  Nile Red Fluorescence % Increase: 34.5%
[8]
  agonist of antioxidant response element at: element at 37.6 μM)

## CN(C)CCCn1cc(C2=C(c3c[nH]c4ccccc34)C(=O)NC2=O)c2ccccc21 [Bisindolylmaleimide, 2-[1-(3-Dimethylaminopropyl)-1H-indol-3-yl]-3-(1H-indol-3-yl)-maleimide]
Nannochloris sp. [1]; 0 h, 1.3 µM
  % Increase based on Nile Red Fluorescence Intensity: 70%
Nannochloris sp. [1]; Nannochloris sp., 49 nM, (water), t=day 0
  % Lipid increase based on Nile red fluorescence intensity: 141%
PKC
  Ki: 0.01 µM
PKA
  Ki: 2 µM

## 2-tert-Butyl-4-hydroxyanisole and 3-tert-butyl-4-hydroxyanisole (mixture) [BHA]
Nannochloropsis salina [9]; 4 nM
  increase in lipid levels: 63%
  Lipid productivity: 8.1 ± 0.6 mgL^−1day^−1
  Lipid content: 28.8 ± 11.4 % w/w
  Change in Lipids: 63%
  Specific Growth Rate: 0.23 ± 0.002 day⁻¹
Nannochloropsis salina [5]; N. salina
  % Inc: 290.14%
[10]
  IC50: 43 µM

## CCCOC(=O)c1cc(O)c(O)c(O)c1 [propyl gallate, propyl 3,4,5-trihydroxybenzoate]
Nannochloropsis salina [9]; 40 nM
  increase in lipid levels: 67%
  Lipid productivity: 8.3 ± 1.7 mgL^−1day^−1
  Lipid content: 25.9 ± 11.4 % w/w
  Change in Lipids: 67%
  Specific Growth Rate: 0.23 ± 0.002 day⁻¹
Nannochloropsis salina [5]; N. salina
  % Inc: 264.42%
[11]
  IC50: 4.5 µM

## Oc1cc(O)cc(/C=C/c2ccc(O)c(O)c2)c1 [Piceatannol, 3,3′,4,5′-Tetrahydroxy-trans-stilbene]
[2]; 4-40 μM (H2O)
  % increase (lipid production): 7-41 (H2O) %
Nannochloropsis salina [5]; 40 μM, dose-response microplate screen
  Nile Red percent increase: 195%
Nannochloropsis salina [5]; 55-40 μM
  % increase (lipid production): 0.3-148%
PKC; PKC
  IC50: 8 µM
MLCK
  IC50: 12 µM
[12]
  IC50: 3 µM
